# Assay results taken from patent US10100043B2, “Substituted aldehyde compounds and methods for their use in increasing tissue oxygenation” (Global Blood Therapeutics, Inc., priority 2013, dated 2018).
# Biological target: T1, purified Hemoglobin S (HbS) (Homo sapiens, UniProt P68871+P69905, E7V)
# T1 construct: HbS was purified by a modified procedure; from tissue; host or cells: blood of homozygous sickle cell patients (CHORI)
# Assay: Modulation of hemoglobin oxygen affinity: oxygen equilibrium curves (OEC) in purified HbS, HEMOX analyzer
# Type: biochemical
# Conditions: compounds tested at 30 μM; 25 μM purified HbS, 45 min at 37° C., pH 7.4
# Protocol: Oxygen equilibrium curves (OEC) in purified Hemoglobin S (HbS) were measured by the change in p50, the partial pressure of oxygen at which the heme binding sites in the HbS sample are 50% saturated with oxygen. HbS was purified by a modified procedure (Antonini and Brunori, 1971; Hemoglobin and Myoglobin in their Reactions with Ligands; North Holland Publishing Company; Amsterdam, London) from blood obtained from homozygous sickle cell patients though the Hemoglobinopathy Center at Children's Hospital Oakland Research Institute (CHORI) with Institutional Review Board approval. Oxygen equilibrium curves were carried out with a HEMOX analyzer, (TCS Scientific, New Hope, Pa.). Five hundred μL of 250 μM purified HbS were diluted into 4.5 mL of HEMOX buffer (30 mM TES, 130 mM NaCl, 5 mM KCl, pH=7.4) resulting in a final hemoglobin concentration of 25 μM. The compounds were added at the final desired concentrations. The mixture was incubated for 45 min at 37° C. and then transferred to the Hemox sample chamber. The samples were saturated with oxygen by flushing with compressed air for 10 minutes. The samples were then flushed with pure nitrogen and the absorbance of deoxy-Hb was recorded as a function of the solution pO2. The oxygen equilibrium data was then fit to the Hill Model to obtain values for p50. The deoxygenation curves for both HbS alone (control) and HbS in the presence of compound were collected with the TCS software. The p50 for purified Hbs was typically 13.8±1.6. Delta p50 values were obtained from the p50 value for control minus the p50 value for HbS treated with compound divided by the p50 value for the control.
# The compounds of Table 1 that were where tested in the assay above were all found to have positive delta p50 values. Delta p50% is calculated from [[p50(HbS)-p50(HbS treated with compound)]/p50(HbS)]×100. Table 2 below lists the delta p50% values where + indicates a delta p50% of between 0 and 29 and ++ indicates a delta p50% of 30 or greater. Unless noted otherwise, the compounds in Table 2 were tested at 30 μM.
row,Structure (SMILES),delta p50
1,"COc1cccc(OC[C@H]2CC[C@H](C(=O)OC)CC2)c1C=O [Compound 8, trans-methyl 4-((2-formyl-3-methoxyphenoxy)methyl)cyclohexanecarboxylate]",+ (+ indicates a delta p50% of between 0 and 29)
2,"O=Cc1c(O)cccc1OC[C@H]1CC[C@H](C(=O)O)CC1 [Compound 6, trans-4-((2-formyl-3-hydroxyphenoxy)methyl)cyclohexanecarboxylic acid]",++ (++ indicates a delta p50% of 30 or greater)
3,"O=Cc1c(O)cccc1OC[C@H]1CCC[C@@H](C(=O)O)C1 (relative stereo) [Compound 5, cis-3-((2-formyl-3-hydroxyphenoxy)methyl)cyclohexanecarboxylic acid]",++ (++ indicates a delta p50% of 30 or greater)

# Biological target: T2, purified HBS (Homo sapiens, UniProt P68871+P69905, E7V)
# T2 construct: HbS is purified by the CRO VIRUSYS, from blood obtained from homozygous sickle cell patients; tissue VIRUSYS (CRO that did the purification); host or cells: blood of homozygous sickle cell patients (CHORI)
# Assay: HbS polymerization assay (delay time, absorbance at 700 nm)
# Type: biochemical
# Conditions: percent delay (% DT) of polymerization vs HBS alone; 50 μM purified HBS, 1.8 M potassium phosphate pH 7.4
# Protocol: Polymerization assays are carried out in vitro using purified HBS exchanged into 1.8 M potassium phosphate buffer at pH 7.4. Using a slightly modified protocol (Antonini and Brunori, 1971), HbS is purified by the CRO VIRUSYS, from blood obtained from homozygous sickle cell patients through the Hemoglobinopathy Center at Children's Hospital Oakland Research Institute (CHORI) with Institutional Review Board approval. Compounds are prepared in 100% DMSO and a desired amount is added to 50 μM of purified HBS at a final DMSO concentration of 0.3%. Final potassium phosphate concentration is adjusted to 1.8 M using a combination of 2.5 M potassium phosphate stock solution and water at pH 7.4. The reaction mixture is incubated for an hour at 37° C. and then transferred into a 24-well plate for deoxygenation in a glove box containing 99.5% nitrogen and 0.5% oxygen. The 24-well plate is not covered and incubated at 4° C. on a plate cooler inside the glove box for one and a half hours. Fifty μL of the reaction mixture is transferred into a 96-well plate and the absorbance at 700 nm is measured every minute for one hour at 37° C. in a plate reader located inside the glove box. A plot of the absorbance against time is fitted using a Boltzman sigmoidal fit and the delay time (from zero to time at half Vmax) is measured. To compare and rank compounds, delay times are expressed as percent delay (% DT), which is defined as the difference in delay times for HBS/compound and HBS alone multiplied by 100 and divided by the delay time for HBS alone.
# Compounds listed below have been tested in the polymerization assay. Activity ranges are defined by the number of dagger (†) symbols indicated. † denotes activity ≥40% but ≤80%; †† denotes activity >80% but ≤120%; ††† denotes activity >120% but ≤140%; †††† denotes activity >160%.
row,Structure (SMILES),% delta Delay
1,"O=Cc1c(O)cccc1OCC1=C(c2ccccc2)CCCC1 [Compound 10, 2-hydroxy-6-((3,4,5,6-tetrahydro-[1,1′-biphenyl]-2-yl)methoxy)benzaldehyde]",†† (†† denotes activity >80% but ≤120%)
2,"COc1cccc(OC[C@H]2CC[C@H](C(=O)OC)CC2)c1C=O [Compound 8, trans-methyl 4-((2-formyl-3-methoxyphenoxy)methyl)cyclohexanecarboxylate]",† († denotes activity ≥40% but ≤80%)
3,"O=Cc1c(O)cccc1OC[C@H]1CC[C@H](C(=O)O)CC1 [Compound 6, trans-4-((2-formyl-3-hydroxyphenoxy)methyl)cyclohexanecarboxylic acid]",†† (†† denotes activity >80% but ≤120%)
4,"O=Cc1c(O)cccc1OCC1CCCCC1c1ccccc1 (centres unmarked) [Compound 11, 2-hydroxy-6-((2-phenylcyclohexyl)methoxy)benzaldehyde]",† († denotes activity ≥40% but ≤80%)
5,"O=Cc1c(O)cccc1OC[C@H]1CCC[C@@H](C(=O)O)C1 (relative stereo) [Compound 5, cis-3-((2-formyl-3-hydroxyphenoxy)methyl)cyclohexanecarboxylic acid]",†††† (†††† denotes activity >160%)

# Biological target: T3, HbS/A (Homo sapiens, UniProt P68871+P69905, E7V)
# T3 construct: A mixture of HbS/A was purified from blood; from tissue; host or cells: blood of homozygous sickle cell patients (CHORI)
# Assay: Relaxed-to-tense transition assay (R/T assay)
# Type: biochemical
# Conditions: compounds tested at 9 μM; 3 μM HbS/A, 30 μM DPG, 1 hr at 37° C., deoxygenation with N2
# Protocol: A relaxed-to-tense transition assay (“R/T assay”) was used to determine the ability of substituted benzaldehyde compounds to maintain the high-oxygen affinity relaxed (R) state of hemoglobin under deoxygenated conditions. This ability can be expressed as a “delta R” value (i.e., the change in the time-period of the R state after hemoglobin is treated with a compound, as compared to the period without treatment with the compound). Delta R is the % R to remaining after the compounds treatment compared with no treatment (e.g. if R % without treatment is 8% while with treatment with a target compound is 48% R at 30 μM, then % R is 40% for that compound.
# A mixture of HbS/A was purified from blood obtained from homozygous sickle cell patients though the Hemoglobinopathy Center at Children's Hospital Oakland Research Institute (CHORI) with Institutional Review Board approval. HbS/A (at a final concentration of 3 μM) was incubated for 1 hr at 37° C. in presence or absence of compounds in […] potassium phosphate buffer, pH=7.4 and 30 μM 2, 3 diphosphoglycerate (DPG) in 96 well plates in a final volume of 160 μl. Compounds were added at different concentrations (3 μM to 100 μM final concentrations). Plates were covered with a Mylar film. After incubation was completed the Mylar cover was removed and the plates were placed in a Spectrostar Nano plate reader previously heated at 37° C. Five minutes later, N2 (flow rate=20 L/min) was flowed through the spectrophotometer. Spectroscopic measurements (300 nm to 700 nm) were taken every 5 min for 2 hours. Data analysis was performed by using linear regression from the data retrieved for all wavelengths.
# Table 4 below lists the delta R values where + indicates a delta R of between 0 and 30, ++ indicates a delta R of between 30 and 50, and +++ indicates a delta R of 50 or greater. Unless noted otherwise, the compounds in Table 2 were tested at 9 μM.
row,Structure (SMILES),delta R (%)
1,"O=Cc1c(O)cccc1OCC1=C(c2ccccc2)CCCC1 [Compound 10, 2-hydroxy-6-((3,4,5,6-tetrahydro-[1,1′-biphenyl]-2-yl)methoxy)benzaldehyde]",++ (++ indicates a delta R of between 30 and 50)
2,"COc1cccc(OC[C@H]2CC[C@H](C(=O)OC)CC2)c1C=O [Compound 8, trans-methyl 4-((2-formyl-3-methoxyphenoxy)methyl)cyclohexanecarboxylate]",+ (+ indicates a delta R of between 0 and 30)
3,"O=Cc1c(O)cccc1OCC1CCCCC1c1ccccc1 (centres unmarked) [Compound 11, 2-hydroxy-6-((2-phenylcyclohexyl)methoxy)benzaldehyde]",++ (++ indicates a delta R of between 30 and 50)
4,"O=Cc1c(O)cccc1OC[C@H]1CCC[C@@H](C(=O)O)C1 (relative stereo) [Compound 5, cis-3-((2-formyl-3-hydroxyphenoxy)methyl)cyclohexanecarboxylic acid]",+++ (+++ indicates a delta R of 50 or greater)

# Test system: whole blood from homozygous sickle cell patients
# Assay: Whole blood assay: oxygen equilibrium curves of whole blood, HEMOX analyzer
# Type: cell-based, human
# Conditions: compounds tested at 1000 μM; hematocrit 20%, 1 hour at 37° C.
# Protocol: Oxygen Equilibrium Curves (OEC) of whole blood before and after treatment with different concentrations of substituted benzaldehyde compounds were performed as follows using a HEMOX analyzer (TCS Scientific, New Hope, Pa.). Blood samples from homozygous sickle cell patients were obtained though the Hemoglobinopathy Center at Children's Hospital Oakland Research Institute (CHORI) with Institutional Review Board approval. The hematocrit was adjusted to 20% using autologous plasma and the blood samples were incubated for 1 hour at 37° C. in absence or presence of compounds. 100 μl of these samples were added to 5 mL of Hemox buffer (30 mM TES, 130 mM NaCl, 5 mM KCl, pH=7.4) at 37° C. and then transferred to the Hemox sample chamber. The samples were saturated with oxygen by flushing with compressed air for 10 minutes. The samples were then flushed with pure nitrogen and the respective absorbances of oxy- and deoxy-Hb are recorded as a function of the solution pO2. The oxygen equilibrium data were then fitted to the Hill Model to obtain values for p50. The deoxygenation curves for both whole blood alone (control) and whole blood in the presence of the compound were collected with the TCS software.
# Table 5 below lists the delta p50% values where + indicates a delta p50% of between 0 and 29, ++ indicates a delta p50% of between 30 and 50, and +++ indicates a delta p50% of 50 or greater. The compounds in Table 2 were tested at 1000 μM.
row,Structure (SMILES),delta p50%
1,"O=Cc1c(O)cccc1OCC1=C(c2ccccc2)CCCC1 [Compound 10, 2-hydroxy-6-((3,4,5,6-tetrahydro-[1,1′-biphenyl]-2-yl)methoxy)benzaldehyde]",++ (++ indicates a delta p50% of between 30 and 50)
2,"O=Cc1c(O)cccc1OC[C@H]1CC[C@H](C(=O)O)CC1 [Compound 6, trans-4-((2-formyl-3-hydroxyphenoxy)methyl)cyclohexanecarboxylic acid]",+ (+ indicates a delta p50% of between 0 and 29)
3,"O=Cc1c(O)cccc1OC[C@H]1CCC[C@@H](C(=O)O)C1 (relative stereo) [Compound 5, cis-3-((2-formyl-3-hydroxyphenoxy)methyl)cyclohexanecarboxylic acid]",++ (++ indicates a delta p50% of between 30 and 50)

# Test system: Transgenic mice producing human HbS
# Assay: not given
# Conditions: extreme hypoxia (5% oxygen), compared to non-treated mice; cited from earlier work
row,Structure (SMILES),hypoxia-induced sickled red blood cells
1,"O=Cc1ccc(CO)o1 [Compound 5HMF, 5-hydroxymethyl-2-furfuraldehyde]",reduced amounts of hypoxia-induced sickled red blood cells

# Same assay, conditions: extreme hypoxia (5% oxygen); cited from earlier work
row,Structure (SMILES),survival times
1,"O=Cc1ccc(CO)o1 [Compound 5HMF, 5-hydroxymethyl-2-furfuraldehyde]",significantly improved survival times
